{
  "source": "patent US20240390377A1",
  "about": "“COMPOSITION FOR THE PREVENTION OR TREATMENT OF NEURODEGENERATIVE OR MOTOR NEURON DISEASES COMPRISING HALOFUGINONE AS AN ACTIVE INGREDIENT” (CURAMYS CO., LTD., priority 2022, published 2024)",
  "key": {"C2C12 cells": {"system": "C2C12 cells", "assay": "Real-time qRT-PCR analysis of C2C12 myoblasts (TGF-β1 stimulation, halofuginone treatment)", "type": "cell-based, mouse", "conditions": "low (5 ng/ml) or high (10 ng/ml) concentration halofuginone, 24 h (FIG. 4a)", "protocol": "Specifically, C2C12 cells (CRL-1772) were purchased from the American Type Culture Collection (ATCC) and maintained in DMEM medium (Welgene) containing 10% (v/v) fetal bovine serum (FBS; Gibco) and 1% penicillin-streptomycin (P/S; Gibco) at 37° C. under 5% CO2 conditions. The C2C12 cells were seeded in 6-well plates at a density of 3×10^5 cells per well and allowed to adhere for 24 hours. Subsequently, the medium was replaced with serum-free medium after 24 hours, followed by stimulation with 5 ng/ml rhTGF-β1 (recombinant human TGF-β1; R&D Systems). After stimulation, the cells were treated with various concentrations (0 [control], or 1, 2.5, 5 [low dose], 10 [high dose], 20, 50, 100 ng/ml) of halofuginone (Sigma) in serum-free medium for 24 hours.\nSpecifically, total RNA was isolated from C2C12 cells in Example 1, fibroblasts in Example 5, and the lumbar spinal cord of mice in Example 6 using the FavorPrep™ Tri-RNA Reagent (Favorgen). The lumbar spinal cord was isolated from the mouse in Example 6 and stored frozen at −80° C. until the experiment. The concentration of total RNA was measured at 260 nm absorbance using a spectrophotometer (NanoDrop Spectrophotometer ND-2000, Thermo Scientific). cDNA was synthesized from 1 μg of total RNA using the ReverTra Ace-α™ (Toyobo) according to the manufacturers protocol. Quantitative RT-PCR was performed using the SYBR Green ExcelTaq™ 2× Fast Q-PCR Master Mix (TQ1200, Smobio) on a thermocycler (CFX Connect Real-Time PCR Detection System, BIO-RAD) with the primers listed in Table 3 below. Fluorescence data were analyzed with Bio-Rad CFX Manager 3.1 software, and control versus relative mRNA expression was calculated by the 2AT) method. Experiments were performed four times on all samples. All primers were designed using Primer3 online software, and GAPDH was used as a control group.\nSpecifically, after treating C2C12 cells with TGF-β1 for 24 hours as in Example 1, real-time qRT-PCR was performed in the same manner as in Example 11 to confirm TGF-β1, 2 and 3, α-SMA and MyoD mRNA expression (FIG. 2a), and Western blot analysis was performed in the same manner as in Example 12 to confirm autocrine expression of TGF-β1 and MyoD protein and α-SMA (FIG. 2b).\nSpecifically, as in Example 1, C2C12 cells were stimulated with TGF-β1 for 24 hours, and then halofuginone was treated for 24 hours, and real-time qRT-PCR was performed in the same manner as in Example 11 to confirm TGF-β1, α-SMA, MyoD, and collagen I (Col-I) mRNA expression (FIG. 4a). In addition, Western blot analysis was performed in the same manner as in Example 12 to confirm TGF-β1, α-SMA, MyoD, and collagen I protein expression (FIG. 4b). In addition, immunocytochemical analysis was performed in the same manner as in Example 3 to confirm α-SMA and MyoD expression (FIG. 4c)."}, "[1]": {"system": "G93A mutant SOD1 transgenic mice", "assay": "Range of motion (ROM) of the knee joint in ALS animal model", "type": "in vivo, mouse", "conditions": "120 days old; compared to DMSO Non-TG group (DMSO TG significantly reduced)", "protocol": "As a control group, non-transgenic mice were injected intraperitoneally (i.p.) with vehicle (DMSO) in the same manner for the same period of time. Specifically, anatomical indicators were used to determine the knee extension angle. Manual knee joint ROM was measured at the end of disease age (120 days) using Random Two-line, a 2D angle analysis system. The mice of Example 6 were anesthetized with 1% isoflurane inhalation, followed by placing them on an acrylic plate and shaving the skin on their hind legs. The femur was fixed to the plate and a constant force extension moment was applied to the knee joint per mouse. Subsequently, markers were attached to greater trochanter, epicondyle of the knee, and lateral malleolus to obtain markers on the imaging. The angle between the axis of the femur (the greater trochanter to the lateral joint space of the knee) and the fibula (the lateral joint space of the knee to the lateral malleolus) was measured as the knee extension ROM. Sixteen mice in each group were analyzed, and the knees of non-transgenic mice injected with DMSO in the group on day 120 were used as controls. Specifically, halofuginone was administered to G93A mutant SOD1 mice in the same manner as described in Example 6, and ROM measurement of the knee joint was performed in the same manner as described in Example 10 (FIG. 8a). […]"}},
  "data": [
    {"compound": "O=C(C[C@H]1NCCC[C@@H]1O)Cn1cnc2cc(Br)c(Cl)cc2c1=O", "note": "(racemic) [halofuginone]", "values": [
      {"measurement": "decrease in MyoD mRNA level by TGF-β1 stimulation", "setting": "C2C12 cells", "result": "significantly recovered"},
      {"measurement": "increase in TGF-β1 mRNA level by TGF-β1 stimulation", "setting": "C2C12 cells", "result": "significantly reduced"},
      {"measurement": "increase in collagen I mRNA level by TGF-β1 stimulation", "setting": "C2C12 cells", "result": "significantly reduced"},
      {"measurement": "increase in α-SMA mRNA level by TGF-β1 stimulation", "setting": "C2C12 cells", "result": "significantly reduced"},
      {"measurement": "range of motion (ROM) of the knee joint", "setting": "[1]", "result": "not changed"}
    ]}
  ]
}
